Assay results reported in patent publication US4551472A, “Unsymmetrical bis-carbamate compounds” (priority 1984, dated 1985).

Experiments:
Soy = experiment: Phytotoxicity Test, soy; conditions: 2500 ppm spray, ten days
Protocol: (§1) Experiments were also conducted to determine the phytotoxicity of representative compounds with respect to healthy fresh plants. […] The test plants were sprayed in accordance with the procedure described above for the Mite Foliage Spray Test so as to deliver approximately 100 milliliters of test solution to the leaves of each plant tested. The sprayed plants and controls were set aside for approximately one hour to allow the foliage to dry and were then placed in the greenhouse. After ten days the plants were visually inspected to determine the extent of foliage injury. A rating of 1 indicates no perceptible injury; 5 indicates the plant was dead and ratings of 2, 3 and 4 indicate intermediate degrees of injury based upon the number and extent to which leaves were injured.

Tom = experiment: Phytotoxicity Test, tomato; conditions: 2500 ppm spray, ten days
Protocol: as §1

Cotton = experiment: Phytotoxicity Test, cotton; conditions: 2500 ppm spray, ten days
Protocol: as §1

Corn = experiment: Phytotoxicity Test, corn; conditions: 2500 ppm spray, ten days
Protocol: as §1

Bean = experiment: Phytotoxicity Test, bean; conditions: 2500 ppm spray, ten days
Protocol: as §1

[1] = Mammalian Toxicity, peroral toxicity to rat; assay type: in vivo; conditions: in vivo, po, read-out: A.O. Rat LD50
Protocol: Certain compounds were also evaluated to determine their peroral toxicity to mammals by conventional methods. The representative animal selected for this experiment was the rat.

[2] = system: root-knot nematode, Meloidogyne incognita var. acrita; experiment: Nematocide Test; also: key: 1: severe galling, equal to untreated plants; 2: moderate galling; 3: light galling; 4: very light galling; 5: no galling, perfect control; assay type: in vivo; conditions: 3.33 m.g. per jar; cucumber, approximately 3 weeks
Protocol: The test organism used was the infective migratory larvae of the root-knot nematode, Meloidogyne incognita var. acrita, reared in the greenhouse on roots of cucumber plants. Infected plants were removed from the culture, and the roots are chopped very finely. A small amount of this inoculum was added to a pint jar containing approximately 180 cc. of soil. The jars were capped and incubated for one week at room temperature. During this period eggs of the nematode were hatched, and the larval forms migrated into the soil.
Ten ml. of the test formulation were added to each of the two jars for each dosage tested. Following the addition of chemical, the jars were capped, and the contents thoroughly mixed on a ball mill for 5 minutes.
The test compounds were formulated by a standard procedure of solution in acetone addition of an emulsifier, and dilution with water. Primary screening tests were conducted at 3.33 m.g. of the test compound per jar.
The jars were left capped at room temperature for a period of 48 hours, and the contents then transferred to 3 inch pots. Subsequently, the pots were seeded to cucumber as an indicator crop and placed in the greenhouse where they were cared for in the normal fashion for approximately 3 weeks.
The cucumber plants were then taken from the pots, the soil removed from the roots; and the amount of galling visually rated.
In the test for activity against nematodes (nem) activity was rated as follows: […]

| Structure (SMILES) | Phytotoxicity: Soy (Soy) | Phytotoxicity: Tom (Tom) | Phytotoxicity: Cotton (Cotton) | Phytotoxicity: Corn (Corn) | Phytotoxicity: Bean (Bean) | LD50 [1] | Biological Activity: Nem (nematode, galling rating) [2] |
| --- | --- | --- | --- | --- | --- | --- | --- |
| CSC(C)=NOC(=O)N(C)SN(C)C(=O)ON=C1CSCCS1 [Example II] | 1 | 1 | 1 | 1 | 1 | 190 mg/kg | 5 |
| CSC(C)=NOC(=O)N(C)SN(C)C(=O)Oc1cccc2c1OC(C)(C)C2 [Example V, N-[1-Methylthioacetaldehyde O-(N-methylcarbamoyl)oxime]N-[2,2-dimethyl-2,3-dihydro-7-(N-methylcarbamoyloxy)benzofuran]sulfide] | 2 | 2 | 2 | 1 | 2 | 15.9 mg/kg | 5 |
| CSC(C)(C)C=NOC(=O)N(C)SN(C)C(=O)Oc1cccc2ccccc12 [Example VI, N-[2-Methylthio-2-methylpropionaldehyde O-(N-methylcarbamoyl)oxime]N-[1-(N-methylcarbamoyloxy)naphthalene]sulfide] | 1 | 1 | 1 | 1 | 1 | 2.97 mg/kg | 4 |
| CSC(C)=NOC(=O)N(C)SN(C)C(=O)Oc1ccc(C(C)(C)C)cc1 [IX, N-[1-Methylthioacetaldehyde O-(N-methylcarbamoyl)oxime]N-[4-tert-butylphenyl-(N-methylcarbamoyloxy)]sulfide] | 1 | 1 | 1 | 1 | 1 | 226 mg/kg | 3 |
| CSC(C)=NOC(=O)N(C)SN(C)C(=O)Oc1cccc2ccccc12 [VII, N-[1-Methylthioacetaldehyde O-(N-methylcarbamoyl)oxime]N-[1-naphthylmethylcarbamate]sulfide] | 2 | 1 | 2 | 1 | 1 | 160 mg/kg | 4 |
| CSC(C)=NOC(=O)N(C)SN(C)C(=O)Oc1ccc(C(C)C)cc1 [VIII, N-[1-Methylthioacetaldehyde O-(N-methylcarbamoyl)oxime]N-[4-isopropylphenyl-(N-methylcarbamoyloxy)]sulfide] | 1 | 1 | 1 | 1 | 1 | 160 mg/kg | 4 |
| CSC(C)=NOC(=O)N(C)SN(C)C(=O)Oc1ccc([N+](=O)[O-])cc1 [XII, N-[1-Methylthioacetaldehyde O-(N-methylcarbamoyl)oxime]N-[1-(N-methylcarbamoyloxy)-4-nitrobenzene]sulfide] | 1 | 1 | 1 | 1 | 1 | 453 mg/kg | 1 |
| CCOC(=O)C(=NOC(=O)N(C)SN(C)C(=O)ON=C(C)SC)SC [XIII, N-[1-Methylthioacetaldehyde O-(N-methylcarbamoyl)oxime]N-[1-methylthio-1-ethoxycarbonylformaldehyde O-(N-methylcarbamoyl)oxime]sulfide] | 2 | 1 | 1 | 1 | 1 | 160 mg/kg | 3 |
| CSC(C)=NOC(=O)N(C)SN(C)C(=O)Oc1cccc2c1CCCC2 [XIV, N-[1-Methylthioacetaldehyde O-(N-methylcarbamoyl)oxime]N-[1-(N-methylcarbamoyloxy)-5,6,7,8-tetrahydronaphthalene]sulfide] | 1 | 1 | 1 | 1 | 1 | 285 mg/kg | 4 |
| CSC(C)=NOC(=O)N(C)SN(C)C(=O)Oc1ccc(SC)c(C)c1 [XV, N-[1-Methylthioacetaldehyde O-(N-methylcarbamoyl)oxime]N-[O-(N-methylcarbamoyl)-4-methylthio-3-methylphenyl]sulfide] | 1 | 1 | 1 | 1 | 1 | 40 mg/kg | 4 |
| COC(=O)Nc1ccc(OC(=O)N(C)SN(C)C(=O)ON=C(C)SC)cc1C(C)C [XVI, N-[1-Methylthioacetaldehyde O-(N-methylcarbamoyl)oxime]N-[4-methoxycarbonylamino-(N-methylcarbamate)-3-isopropylphenyl]sulfide] | 1 | 1 | 1 | 1 | 1 | 28.3 mg/kg | 4 |
| CSC(C)=NOC(=O)N(C)SN(C)C(=O)Oc1cc(C)c(C)c(C)c1 [XVIII, N-[1-Methylthioacetaldehyde O-(N-methylcarbamoyl)oxime]N-[3,4,5-trimethylphenyl-(N-methylcarbamoyloxy)]sulfide] | 1 | 1 | 1 | 1 | 1 | 95.1 mg/kg | 4 |
| CN(SN(C)C(=O)Oc1cccc2ccccc12)C(=O)ON=C1CSCCS1 [XXII, N-[2-O-(N-methylcarbamoyl)oximino-1,4-dithiane]N-[1-naphthyl-(N-methylcarbamoyloxy)]sulfide] | 2 | 1 | 1 | 1 | 1 | 453 mg/kg | 4 |
| CN(SN(C)C(=O)Oc1cccc2c1OC(C)(C)C2)C(=O)ON=C1CSCCS1 [XXIV, N-[2-O-(N-methylcarbamoyl)oximino-1,4-dithiane]N-[2,3-dihydro-2,2-dimethyl-7-(N-methylcarbamoyloxy)benzofuran]sulfide] | 2 | 1 | 2 | 1 | 1 | 20 mg/kg | 5 |
| C#CCOc1ccccc1OC(=O)N(C)SN(C)C(=O)ON=C(C)SC [XXXIX] | 2 | 1 | 2 | 1 | 1 | 160 mg/kg | 3 |
| CCCCCCCCCc1ccc(OC(=O)N(C)SN(C)C(=O)ON=C(C)SC)cc1 [XXXI] | 1 | 1 | 1 | 1 | 1 | > 640 mg/kg | 5 |
